Experimental findings from patent US20130089601A1, “METHOD FOR TREATING ATHEROSCLEROSIS” (KAOHSIUNG MEDICAL UNIVERSITY, priority 2009, published 2013) are described below.

One data set has as its system endogenous microRNA-195. Kind of data set: Endogenous microRNA-195 in VSMC by quantitative real-time PCR, normalized to U44. In kind it is cell-based, human. The settings on record: ox-LDL and simvastatin 1 nM for 24 hours. How it is done:
Quantitative real-time PCR was performed in an ABI PRIZM 7500 sequence detection system in triplicates. The typical amplification program was carried out in a 20 μl reaction with a primer at a final concentration of 300 nM and probes of 200 nM. Serial dilutions of the control cDNA for generating standard curves ran in duplicate. Real-time PCR results were analyzed using ABI PRISM 7500 SDS software. Relative differences of microRNAs were quantified using the […] method. For graphical presentation, the 2^−ΔΔCt transformation was used according to the ABI user bulletin version #2. Expression values were depicted relatively to the value at baseline which was the earliest time point present in all the experiments.
In general terms: In qPCR the cycle at which signal appears reflects the starting amount.

The subject of another data set is VSMC cells. Briefly: Chemotactic migration of VSMC (Transwell). Conditions: 100 nM for 24 hours, ox-LDL 40 μg/ml. In kind it is cell-based, human. The method, then:
Chemotactic migration is another characteristic of atherosclerosis and can be used as another line of evidence of atherosclerotic change for the cultured VSMC cells. This experiment was assayed by using a microchemotactic chamber and polycarbonate filters with pores of […] in diameter (Transwell, Millipore). After incubated with microRNA-195 (Pre-miR miRNA, hsa-miR-195 (product ID PM10827), Ambion Inc.) (100 nM) or an inhibitor (100 nM) for 24 hours, the VSMC cells were trypsinized and suspended with a serum free medium. A volume (300 μl) of a 1×10^4 cell suspension was placed in the upper chamber, the medium containing ox-LDL (40 μg/ml, each) was placed in the lower and upper chamber. The cell suspension was incubated at a temperature of 37° C. under 5% CO2 in air for 24 hours. After incubation, the VSMC cells on the upper side of the filter were scraped off, and the cells that had directly migrated to the lower side of the filter were trypsinized. The cells were fixed with methanol and stained with a Giemsa solution (Merck). Quantification of chemotactic migration was performed using the hemocytometer.

In the case of `CCC(C)(C)C(=O)O[C@H]1C[C@@H](C)C=C2C=C[C@H](C)[C@H](CC[C@@H]3C[C@@H](O)CC(=O)O3)[C@H]21` [simvastatin], the “endogenous microRNA-195 decrease versus ox-LDL-stimulated cells” value in the data set on endogenous microRNA-195 is recorded as greater than 0.68 fold. For the compound “microRNA-195 inhibitor: 5′-GCCAATATTTCTGTGCTGCTA-3′ (SEQ ID NO: 6), Ambion; used to specifically bind to and inhibit endogenous microRNA-195 (listed as DNA, chemistry not given here) [reference compound]”, the “chemotactic migration, percentage of migrated cells compared to control medium cells” value in the data set with VSMC cells is 233.7%.
